Reference: patent US12435056B2, “N-lipoic-amino acid or peptide, derivatives and their uses” (NEOSTRATA COMPANY, INC., priority 2016, dated 2025)
“Also recorded” adds a separate entry of the source.

Assays:
[1] = system: MelanoDerm keratinocyte-melanocyte co-cultures; test: MelanoDerm study: melanin content and skin lightening in 3D keratinocyte-melanocyte co-cultures; format: cell-based, human; details: for decrease of melanin content compared to control: darkly pigmented MelanoDerm
Experimental: (§1) MelanoDerms are co-culture models of keratinocytes and melanocytes and were used to test the ability of L20 as an anti-melanogenic compound. MelanoDerms were derived from a normal adult with darkly pigmented skin. These tissues were treated for two weeks on consecutive days with different doses of L20. One set of cultures were used for regression study, where it was taken off L20 after a week of treatment. Two weeks after treatment, the tissues were tested for melanin content and cell viability (FIG. 2a). […] The melanin content was assayed using a melanin standard curve.
(§2) MelanoDerm Study: MelanoDerms study was performed as per company instructions (Mattek, Ashland, MA). MelanoDerm tissues were derived from darkly pigmented skin type. The tissues were stabilized for 24 h and then treated with different doses of L20 (25 ul) in WEP modified vehicle. The MelanoDerms were treated for 2 weeks on consecutive days. Microscopic images were taken every other day. After two weeks, MTT assay was performed using Cell Titer 96® Aqueous One Solution and melanin content was assayed as mentioned in the protocol.

[2] = system: MelanoDerm keratinocyte-melanocyte co-cultures; test: MelanoDerm survival (MTT assay); format: cell-based, human; details: L20 0.5%, two weeks
Experimental: as §1, §2

[3] = system: normal neonatal human epidermal melanocytes; test: Melanin reduction assay in melanocyte cultures; format: cell-based
Experimental: (§3) L20 is a glycinamide derivative of lipoic acid and was treated on normal human epidermal melanocytes at different doses for 48 h. Doses more than 0.05% L20 appeared to have moderate toxicity (FIG. 1a). We determined the ability of L20 to inhibit melanin synthesis in melanocyte cultures. L20 was used at a non-toxic dose of 0.001% for 7 days (FIG. 1b), their treatment was carried on consecutive days. After a week of treatment, the melanin was extracted and quantified using a melanin standard curve.
Melanin Reduction assay: Normal human epidermal melanocytes were treated with control or L20 for 7 days, and L20 was replaced on consecutive days. Cells were collected on the 7th day and maintained in Solvable (Perkin Elmer, Akron, OH) overnight at 65 degrees overnight. In parallel, melanin (Sigma, St. Louis, MO) standards were made in Solvable and treated similarly to the samples. Melanin content was then quantified colorimetrically using a Tecan microplate reader at 490 nm.

[4] = system: procollagen in EpiDerm-FT fibroblast-keratinocyte co-cultures; test: Procollagen ELISA in EpiDerm-FT tissue; format: cell-based, human; details: L20 1% in WEP vehicle, 48 h, p<0.02, FIG. 3
Experimental: Dermal fibroblast plays an important role in photo-aging and skin homeostasis. We determined if L20 had any anti-aging benefit using dermal fibroblasts. Normal human EpiDerm-FT tissue was used in the study. The Epiderm-FT consists of a fully differentiated epidermal and dermal skin layers. It also has 10-15 layers of stratum corneum and also basal, spinous and granular layers. The tissues were treated with vehicle control and L20 (1%), for 48 h. The tissues were used to measure the expression of procollagen using ELISA assay. The levels of procollagen were normalized to total protein.
L20 was prepared as 1% solution in WEP vehicle consisting of water, ethanol and propylene glycol at native pH. […] The tissue samples were digested using cell lysis buffer and the expression levels of procollagen protein were determined. Procollagen was quantified using standard ELISA technique (Takara Bio Inc.).
Epiderm Study: Epiderm-FT (Mattek, Ashland, MA) was used for the study, derived from neonatal foreskin. […] The cell lysate was analyzed for procollagen using ELISA (Takara, Shiga, Japan) as per instructions and normalized to total protein.

[5] = system: normal human epidermal melanocytes; test: Cell viability / L20 toxicity assay (Cell Titer 96 Aqueous One Solution); format: cell-based
Experimental: as §3
Cell culture: Normal human epidermal melanocytes (Lonza, Walkersville, MA) were grown in special melanocyte media MGM4 with supplements (Lonza, Walkersville, MA). Cells were plated and treated with different doses of L20 for 48 h. L20 was initially dissolved in DMSO (100%) and serial dilution were made in media. The stock was diluted a 1000 fold, to have less than […] DMSO in final solution. Microscopic images were taken using 10× magnification. Normal human dermal fibroblasts (Lonza, Walkersville, MA) were grown in special fibroblast growth media (Lonza, Walkersville, MA). […] To test cell viability, Cell Titer 96® Aqueous One Solution Cell Proliferation Assay was used and absorbance was measured colorimetrically at 490 nm using Tecan microplate reader.

O=c1cc(CO)occ1O [Kojic Acid, reference compound]
decrease of melanin content ([1]; positive control, dose not given, two weeks, MelanoDerm): 27%

NC(=O)CNC(=O)CCCCC1CCSS1 (centres unmarked) [L20, N-lipoic glycinamide]
toxicity in MelanoDerm (cell viability) [2]: non-toxic
melanin extracted and quantified from melanocyte cultures ([3]; L20 0.001%, 7 days, versus untreated and DMSO control, FIG. 1c): no detectable melanin; also recorded: did not have any measureable melanin
melanin synthesis ([3]; normal neonatal human epidermal melanocytes, FIGS. 1a-c): significantly blocks melanin synthesis
procollagen production versus vehicle control, normalized to total protein [4]: significantly increased; also recorded: significantly induces procollagen synthesis; also recorded: induced pro-collagen
visual skin-lightening effect on melanoderms ([1]; 0.5% and 1%, two weeks, FIG. 2b): significant skin-lightening effect
regression study: reversibility of melanin inhibition after removal of L20 ([1]; 0.5% dose group, taken off L20 after one week of treatment): reversible inhibition of melanin synthesis
microscopic observation of melanin ([1]; 24 h after the initial treatment): decreased melanin; also recorded: inhibited melanin synthesis
decrease of melanin content compared to control ([1]; L20 0.1%, two weeks): 44%
decrease of melanin content compared to control ([1]; L20 0.5%, two weeks): 56%
decrease of melanin content compared to control ([1]; L20 1%, two weeks): 60%
melanin synthesis ([1]; normal adult human Melanoderm 3D co-cultures, FIGS. 2a-d): significantly blocks melanin synthesis
non-toxic dose in L20 toxicity assay ([5]; different doses, absorbance at 490 nm): ≤ 0.001%
doses with moderate toxicity ([5]; human, 48 h): more than 0.05%
